# US20200179488A1, “Secretin Receptor Agonists to Treat Diseases or Disorders of Energy Homeostasis” (Technische Universität München, priority 2016, published 2020)
# What was measured:
# [1] = test system: primary brown adipocytes; test: Microplate respirometry (oxygen consumption rate) in differentiated primary brown adipocytes of wildtype mice; type: cell-based, Mus musculus; settings: for stimulation of UCP1-mediated thermogenesis (uncoupled respiration): SCT 10 nM, ISO 500 nM, N=5 (FIG. 10A)
# Method: For culturing primary adipocytes male 129S1/SvImJ mice ([…] or UCP1-KO mice and wildtype littermates) at the age of 5-6 weeks were used for the dissection of inguinal and epidydimal white adipose tissue and interscapular brown adipose tissue depots. The tissue was carefully minced and treated with collagenase for 45 min at 37° C. The homogenate was filtered through a 250 μm nylon mesh and centrifuged at 500 g to collect the stromal vascular fraction (SVF). The SVF cell pellet was rinsed and seeded into XF96 V3-PS cell culture microplate (Seahorse Bioscience). After reaching confluency, induction medium containing 10% fetal bovine serum (FBS), 0.5 mM isobutylmethylxanthine, 125 nM indomethacin, 1 mM dexamethasone, 850 nM insulin and 1 nM T3 was added. After 2 days of induction, cells were maintained in differentiation media (10% FBS, 850 nM insulin and 1 nM T3). Medium was changed every two days. Respiration was measured on day 7 of differentiation. For determination of mRNA levels cells were stimulated at the 7th day of differentiation for 6 hours with secretin (rat, Tocris, Art Nr 1919) or isoproterenol (Sigma-Aldrich, Art Nr. 16504-100MG) and harvested subsequently. Oxygen consumption rate (OCR) was measured at 37° C. using a microplate respirometer (XF96 extracellular flux analyzer, Seahorse Bioscience). At day 7, the differentiation medium was replaced with prewarmed, unbuffered assay medium (DMEM basal medium supplemented with 25 mM glucose, 2 mM sodium pyruvate, 31 mM NaCl, 2 mM GlutaMax and 15 mg/l phenol red, pH 7.4) containing 2% of essentially fatty acid free bovine serum albumin (BSA), and incubated at 37° C. in a room air incubator for 1 h. Basal respiration was measured in untreated cells. Coupled respiration was inhibited by oligomycin treatment (5 μM). […] Maximum respiratory capacity was assessed after FCCP (Sigma-Aldrich) addition (1 μM). Finally, mitochondrial respiration was blocked by antimycin A (Sigma-Aldrich) (5 μM) treatment and the residual OCR was considered to be due to non-mitochondrial reactions. Oxygen consumption rates were calculated using the Seahorse XF-96 software. Data were exported and reconstructed in GraphPad Prism 4.0 software. For each condition the lowest OCR after antimycin A addition was subtracted from all other values. Respiration rates following oligomycin addition were defined as basal OCR. For induction of OCR by isoproterenol, secretin or FCCP the highest values measured after addition of the respective molecule was used. The “OCR in % of basal OCR” and “OCR in % of FCCP OCR” were calculated as follows: Method: To test whether SCT can activate thermogenesis in brown adipocytes, we measured UCP1-mediated uncoupled respiration in cultured adherent intact primary brown adipocytes, according to a protocol recently established in our lab (Li Y, Fromme T, Schweizer S, Schöttl T, Klingenspor M. EMBO Rep. 2014 October; 15(10):1069-76. doi: 10.15252/embr.201438775; […]. Meaningful respirometric measurements of UCP1-mediated thermogenesis. Biochimie. 2017 March; 134:56-61. doi: 10.1016/j.biochi.2016.12.005.). The cellular oxygen consumption rate (OCR) of primary adipocytes was determined using an XF96 Extracellular Flux Analyzer (Seahorse Bioscience). Briefly, primary adipocytes were cultured and differentiated in XF96 microplates. At day 7 of differentiation, cells were washed once with prewarmed, unbuffered assay medium (DMEM basal medium supplemented with 25 mM glucose, 31 mM NaCl, 2 mM GlutaMax and 15 mg/l phenol red, pH 7.4) (basal assay medium) and then the medium was replaced with basal assay medium containing 1-2% essentially fatty acid free bovine serum albumin (BSA), and incubated at 37° C. in a room air incubator for 1 h. The drug injections ports of the sensor cartridges were loaded with the assay reagents at 10× in basal assay medium (no BSA). All respiration assays were performed in the presence of bovine serum albumin to buffer free fatty acid levels in the respiration medium. […]
# [2] = test system: primary brown adipocytes from UCP1 knockout mice; test: Microplate respirometry (oxygen consumption rate) in primary brown adipocytes from UCP1 knockout mice; type: cell-based, Mus musculus
# Method: For culturing primary adipocytes male 129S1/SvImJ mice ([…] or UCP1-KO mice and wildtype littermates) at the age of 5-6 weeks were used for the dissection of inguinal and epidydimal white adipose tissue and interscapular brown adipose tissue depots. The tissue was carefully minced and treated with collagenase for 45 min at 37° C. The homogenate was filtered through a 250 μm nylon mesh and centrifuged at 500 g to collect the stromal vascular fraction (SVF). The SVF cell pellet was rinsed and seeded into XF96 V3-PS cell culture microplate (Seahorse Bioscience). After reaching confluency, induction medium containing 10% fetal bovine serum (FBS), 0.5 mM isobutylmethylxanthine, 125 nM indomethacin, 1 mM dexamethasone, 850 nM insulin and 1 nM T3 was added. After 2 days of induction, cells were maintained in differentiation media (10% FBS, 850 nM insulin and 1 nM T3). Medium was changed every two days. Respiration was measured on day 7 of differentiation. For determination of mRNA levels cells were stimulated at the 7th day of differentiation for 6 hours with secretin (rat, Tocris, Art Nr 1919) or isoproterenol (Sigma-Aldrich, Art Nr. 16504-100MG) and harvested subsequently. Oxygen consumption rate (OCR) was measured at 37° C. using a microplate respirometer (XF96 extracellular flux analyzer, Seahorse Bioscience). At day 7, the differentiation medium was replaced with prewarmed, unbuffered assay medium (DMEM basal medium supplemented with 25 mM glucose, 2 mM sodium pyruvate, 31 mM NaCl, 2 mM GlutaMax and 15 mg/l phenol red, pH 7.4) containing 2% of essentially fatty acid free bovine serum albumin (BSA), and incubated at 37° C. in a room air incubator for 1 h. Basal respiration was measured in untreated cells. […] Maximum respiratory capacity was assessed after FCCP (Sigma-Aldrich) addition (1 μM). […] Oxygen consumption rates were calculated using the Seahorse XF-96 software. […] For induction of OCR by isoproterenol, secretin or FCCP the highest values measured after addition of the respective molecule was used. The “OCR in % of basal OCR” and “OCR in % of FCCP OCR” were calculated as follows: Method: To test whether SCT can activate thermogenesis in brown adipocytes, we measured UCP1-mediated uncoupled respiration in cultured adherent intact primary brown adipocytes, according to a protocol recently established in our lab (Li Y, Fromme T, Schweizer S, Schöttl T, Klingenspor M. EMBO Rep. 2014 October; 15(10):1069-76. doi: 10.15252/embr.201438775; […]. Meaningful respirometric measurements of UCP1-mediated thermogenesis. Biochimie. 2017 March; 134:56-61. doi: 10.1016/j.biochi.2016.12.005.). The cellular oxygen consumption rate (OCR) of primary adipocytes was determined using an XF96 Extracellular Flux Analyzer (Seahorse Bioscience). […]
# [3] = test system: wildtype mice; test: Indirect calorimetry, heat production after i.p. injection in wildtype mice; type: in vivo, Mus musculus; settings: 0.5 mg/kg i.p., 27° C.
# Method: Indirect calorimetric measurements in mice were performed using an open flow respirometry system (Phenomaster, TSE Systems, Bad Homburg/Germany). All animals were kept at room temperature or cold-acclimated at 4° C. for 4 days as indicated in the results section. For the gas exchange measurement (O2 consumption and CO2 production) mice were placed individually in metabolic cages (type I, 3 liter volume) without food and water and transferred to a climate cabinet (TPK 600, Feutron, Greiz/Germany). The air was continuously pulled through the cages at a flow rate of 33 l/h. For gas analysis a subsample was dried in a cooling trap and analyzed for gas exchange. Mice in the cabinet were preconditioned to 30° C. and the basal metabolic rate (BMR) in the post-absorptive state was measured between 8:00 a.m.-12:00 p.m. The O2 consumption and CO2 production of each mouse was analyzed every 5 min over a period of 1 min. […] After injection the O2 consumption and CO2 production rate of each mouse was recorded for 45-60 min with high-resolution recordings at 10 sec intervals. […] Respiratory exchange ratios (RER) and heat production (HP) were calculated from the following formula: (RER=CO2 production/O2 consumption) and (HP[mW]=(4.44+1.43*respiratory exchange ratio)*oxygen consumption [ml/h]).
substance,measurement,setting,value
secretin,increase of OCR above basal OCR,"[1]; 0.5 μM, after oligomycin, day 7 of differentiation (FIG. 2B)",about 200%
same,uncoupled OCR as share of maximal uncoupled OCR induced by FCCP,"[1]; 0.5 μM, day 7 of differentiation (FIG. 2C)",about 75%
same,induction of oxygen consumption in cells from wildtype control mice,"[1]; 129/S1 background, FIG. 3",increase in oxygen consumption
same,stimulation of UCP1-mediated thermogenesis (uncoupled respiration),[1],activate UCP1-dependent thermogenesis
same,stimulation of UCP1-mediated thermogenesis (uncoupled respiration),[1]; listed as SCT,as potent as ISO (500 nM)
same,dose dependence and potency of activation of uncoupled respiration,"[1]; compared to isoproterenol, data not shown",dose-dependent with a higher potency at lower concentrations as compared to isoproterenol
same,induction of respiration in cells from UCP1 knockout mice,"[2]; 129/S1 background, FIG. 3",lacking
same,response of respiration in UCP1 knockout brown adipocytes,"[2]; SCT 10 nM, ISO 500 nM (FIG. 10B)",did not respond
same,AUC of heat production versus PBS,"[3]; 129/S6 wildtype mice, 45 minutes, basal subtracted, p=0.001 (FIG. 5B)",significant increase in the AUC
same,AUC of heat production versus PBS,"[3]; wildtype mice of 129/S1-UCP1 knockout strain, 60 minutes, p=0.002 (FIG. 6C)",higher AUC
